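Each compound was tested at five concentrations against cells in 96-well plates for 48 hours. Abbreviation: GI50, concentration required for 50% inhibition of growth.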 Activity calls are given as the source filed them. Cut-off read from the data, not from the text of the source: active = GI50 up to about 1.1 µM and inactive = higher.
Key:
Assay in all cases: growth of human tumour cells (NCI), 48 h
[1] = system: T47D
[2] = system: TK-10
[3] = system: HL-60
[4] = system: OVCAR-5
[5] = system: EKVX
[6] = system: RPMI-8226
[7] = system: UACC-62
[8] = system: 786-0
[9] = system: OVCAR-8
[10] = system: SK-OV-3
[11] = system: HT-29
[12] = system: HCC 2998
[13] = system: CAKI-1
[14] = system: IGROV-1
[15] = system: NCI-H23
[16] = system: HOP-62
[17] = system: KM12
[18] = system: OVCAR-3
[19] = system: LOX IMVI
[20] = system: MDA-N

Row | Compound | GI50 [1] | GI50 [2] | GI50 [3] | GI50 [4] | GI50 [5] | GI50 [6] | GI50 [7] | GI50 [8] | GI50 [9] | GI50 [10] | GI50 [11] | GI50 [12] | GI50 [13] | GI50 [14] | GI50 [15] | GI50 [16] | GI50 [17] | GI50 [18] | GI50 [19] | GI50 [20]
1 | COC(=O)/C=C1\C(=O)Nc2ccc(Br)cc21 | 2.16 µM (inactive) | 1.56 µM (inactive) | 1.59 µM (inactive) | 1.54 µM (inactive) | 1.77 µM (inactive) | 1.41 µM (inactive) | 1.56 µM (inactive) | 1.48 µM (inactive) | 2.14 µM (inactive) | 3.53 µM (inactive) | 1.73 µM (inactive) | 2.22 µM (inactive) | 1.04 µM (active) | 1.75 µM (inactive) | 1.54 µM (inactive) | 2.06 µM (inactive) | 2.53 µM (inactive) | 1.46 µM (inactive) | 0.804 µM (active) | –
2 | CC1Cn2c(nc3ccccc32)NC1=O (stereo unspecified) | > 100 µM (inactive) | > 100 µM (inactive) | > 100 µM (inactive) | > 100 µM (inactive) | > 100 µM (inactive) | > 100 µM (inactive) | > 100 µM (inactive) | > 100 µM (inactive) | > 100 µM (inactive) | > 100 µM (inactive) | > 100 µM (inactive) | – | > 100 µM (inactive) | > 100 µM (inactive) | > 100 µM (inactive) | > 100 µM (inactive) | > 100 µM (inactive) | > 100 µM (inactive) | > 100 µM (inactive) | > 100 µM (inactive)
3 | O=C1NC(=O)C(c2c[nH]c3cc(Br)ccc23)=C1c1cnc[nH]1 | 48.8 µM (inactive) | 34.9 µM (inactive) | 20.4 µM (inactive) | > 100 µM (inactive) | 23.4 µM (inactive) | 30.8 µM (inactive) | – | 50 µM (inactive) | 65.2 µM (inactive) | 13.1 µM (inactive) | 26.2 µM (inactive) | – | 13.2 µM (inactive) | 28.4 µM (inactive) | – | 19.1 µM (inactive) | 21.1 µM (inactive) | 12.3 µM (inactive) | 19.5 µM (inactive) | 35.5 µM (inactive)
4 | O=C(OCCC12CC3CC(CC(C3)C1)C2)c1ccc(NCc2cc(O)ccc2O)cc1 | 0.214 µM (active) | 1.52 µM (inactive) | 0.176 µM (active) | – | 1.7 µM (inactive) | 0.172 µM (active) | 1.61 µM (inactive) | 1.28 µM (inactive) | – | 2.91 µM (inactive) | 1.94 µM (inactive) | – | 0.363 µM (active) | 0.0547 µM (active) | 0.689 µM (active) | 3.56 µM (inactive) | 0.69 µM (active) | 0.239 µM (active) | 0.757 µM (active) | 1.36 µM (inactive)
5 | CC(=O)OC1CC[C@]2(C)C3CC[C@@]4(C)C(CCC4[C@H](C)CCCC(C)C)[C@@H]3CCC2(Br)C1 (stereo partly specified) | 14.1 µM (inactive) | 12.8 µM (inactive) | 9.59 µM (inactive) | 24.2 µM (inactive) | > 50 µM (inactive) | – | 21 µM (inactive) | 8.49 µM (inactive) | 10.8 µM (inactive) | > 50 µM (inactive) | 17.5 µM (inactive) | > 50 µM (inactive) | 9.1 µM (inactive) | 11.9 µM (inactive) | 13 µM (inactive) | > 50 µM (inactive) | 21.4 µM (inactive) | 14.5 µM (inactive) | 11.6 µM (inactive) | 20.1 µM (inactive)
6 | Cc1ccc2[nH]c(=O)c(-c3cnc(O)nn3)c(O)c2c1 | 53.2 µM (inactive) | > 100 µM (inactive) | > 100 µM (inactive) | > 100 µM (inactive) | 3.4 µM (inactive) | 6.24 µM (inactive) | 26.4 µM (inactive) | > 100 µM (inactive) | > 100 µM (inactive) | > 100 µM (inactive) | > 100 µM (inactive) | – | 55.3 µM (inactive) | > 100 µM (inactive) | 86.7 µM (inactive) | > 100 µM (inactive) | > 100 µM (inactive) | 58.1 µM (inactive) | > 100 µM (inactive) | 17.7 µM (inactive)
7 | O=c1c2ccccc2nc(-c2cccc([N+](=O)[O-])c2)n1O | 58.5 µM (inactive) | 94.2 µM (inactive) | 1.64 µM (inactive) | 66.7 µM (inactive) | 36.8 µM (inactive) | – | 33.5 µM (inactive) | 42.9 µM (inactive) | 20.3 µM (inactive) | 42.8 µM (inactive) | 43.7 µM (inactive) | 59.6 µM (inactive) | 40.7 µM (inactive) | 22.8 µM (inactive) | 50 µM (inactive) | 49 µM (inactive) | 36.5 µM (inactive) | 31.6 µM (inactive) | 27.2 µM (inactive) | 43.4 µM (inactive)
8 | Oc1c(CN2CCN(c3ccccc3)CC2)cc(Br)c2cccnc12 | 1.32 µM (inactive) | 3.61 µM (inactive) | 0.485 µM (active) | 4.07 µM (inactive) | 2.62 µM (inactive) | 0.361 µM (active) | 1.01 µM (active) | 1.4 µM (inactive) | 0.721 µM (active) | 3.21 µM (inactive) | 10.9 µM (inactive) | – | 1.21 µM (inactive) | 0.834 µM (active) | 1.82 µM (inactive) | 1.33 µM (inactive) | 1.56 µM (inactive) | 0.423 µM (active) | 0.52 µM (active) | 0.855 µM (active)
9 | CN(C)c1ccc(/C=N/NC2=N/C(=C\c3ccco3)C(=O)N2)cc1 | > 100 µM (inactive) | > 100 µM (inactive) | > 100 µM (inactive) | > 100 µM (inactive) | > 100 µM (inactive) | > 100 µM (inactive) | > 100 µM (inactive) | > 100 µM (inactive) | > 100 µM (inactive) | > 100 µM (inactive) | > 100 µM (inactive) | – | > 100 µM (inactive) | > 100 µM (inactive) | > 100 µM (inactive) | > 100 µM (inactive) | > 100 µM (inactive) | > 100 µM (inactive) | > 100 µM (inactive) | > 100 µM (inactive)
10 | NS(=O)(=O)c1nn2c(Br)c(-c3ccccc3)nc2s1 | 3.66 µM (inactive) | 6.37 µM (inactive) | 3.66 µM (inactive) | 11.1 µM (inactive) | 15.8 µM (inactive) | 2.39 µM (inactive) | 4.23 µM (inactive) | 2.45 µM (inactive) | 2.38 µM (inactive) | 14.7 µM (inactive) | 2.49 µM (inactive) | 4.92 µM (inactive) | 3.03 µM (inactive) | 10.4 µM (inactive) | 3.48 µM (inactive) | 14.9 µM (inactive) | 4.85 µM (inactive) | 4.49 µM (inactive) | 1.95 µM (inactive) | –
11 | NC1=NC(c2ccc(Cl)cc2)N(c2ccc(S(=O)(=O)Nc3ncccn3)cc2)C(N)=N1 (stereo unspecified) | > 100 µM (inactive) | > 100 µM (inactive) | 0.178 µM (active) | > 100 µM (inactive) | > 100 µM (inactive) | > 100 µM (inactive) | > 100 µM (inactive) | > 100 µM (inactive) | > 100 µM (inactive) | > 100 µM (inactive) | > 100 µM (inactive) | – | > 100 µM (inactive) | > 100 µM (inactive) | > 100 µM (inactive) | > 100 µM (inactive) | > 100 µM (inactive) | > 100 µM (inactive) | > 100 µM (inactive) | > 100 µM (inactive)
12 | Cc1oc2nc1C(=O)NCc1nc(cs1)C(=O)N[C@H](C(C)C)c1nc(cs1)C(=O)N[C@H]2C | 28.5 µM (inactive) | – | – | > 100 µM (inactive) | > 100 µM (inactive) | 14.3 µM (inactive) | 81.5 µM (inactive) | 57.4 µM (inactive) | 35.2 µM (inactive) | > 100 µM (inactive) | 65 µM (inactive) | 43.7 µM (inactive) | 44.9 µM (inactive) | 29.9 µM (inactive) | > 100 µM (inactive) | 85.1 µM (inactive) | 61.4 µM (inactive) | > 100 µM (inactive) | – | > 100 µM (inactive)
13 | O=C(Cn1c(=O)ccn(C2OC(CO)C(O)C2F)c1=O)c1ccc(F)cc1 (stereo unspecified) | > 100 µM (inactive) | > 100 µM (inactive) | > 100 µM (inactive) | > 100 µM (inactive) | > 100 µM (inactive) | > 100 µM (inactive) | > 100 µM (inactive) | > 100 µM (inactive) | > 100 µM (inactive) | – | > 100 µM (inactive) | – | > 100 µM (inactive) | > 100 µM (inactive) | > 100 µM (inactive) | > 100 µM (inactive) | > 100 µM (inactive) | > 100 µM (inactive) | > 100 µM (inactive) | > 100 µM (inactive)
14 | Clc1ccc(-c2nn3c(C45CC6CC(CC(C6)C4)C5)nnc3s2)cc1 | > 100 µM (inactive) | > 100 µM (inactive) | > 100 µM (inactive) | > 100 µM (inactive) | > 100 µM (inactive) | > 100 µM (inactive) | > 100 µM (inactive) | 35.7 µM (inactive) | – | > 100 µM (inactive) | > 100 µM (inactive) | > 100 µM (inactive) | > 100 µM (inactive) | > 100 µM (inactive) | > 100 µM (inactive) | > 100 µM (inactive) | > 100 µM (inactive) | 39.1 µM (inactive) | > 100 µM (inactive) | –
15 | COc1ccc(C(=O)C(CC2C(=O)CC(C)(C)C(C(=O)C(=O)Nc3c(C)cccc3C)C2=O)c2ccc(OC)cc2)cc1 (stereo unspecified) | – | > 100 µM (inactive) | 96.6 µM (inactive) | > 100 µM (inactive) | > 100 µM (inactive) | – | > 100 µM (inactive) | > 100 µM (inactive) | > 100 µM (inactive) | > 100 µM (inactive) | > 100 µM (inactive) | > 100 µM (inactive) | > 100 µM (inactive) | > 100 µM (inactive) | > 100 µM (inactive) | > 100 µM (inactive) | > 100 µM (inactive) | > 100 µM (inactive) | > 100 µM (inactive) | > 100 µM (inactive)

Reference: ChEMBL document CHEMBL1201862, “PubChem BioAssay data set” (2004)
